# Laboratory results published in ChEMBL document CHEMBL1131492 (J Med Chem, 1998).
# Experiments:
# [1] = target: T1, Sodium-dependent dopamine transporter (Rattus norvegicus, UniProt P23977); assay: Inhibition [3H]DA uptake in rat striatal synaptosomes.; format: functional, subcellular, Brain
# [2] = target: Sodium-dependent dopamine transporter (Rattus norvegicus) (UniProt P23977); assay: Ability to inhibit binding of [3H]cocaine to Cocaine receptor in rat brain; format: tissue-based
# [3] = target: T1, Sodium-dependent dopamine transporter; assay: Inhibition [3H]-cocaine binding to Cocaine receptor in rat striatal membranes.; format: cell membranes
# [4] = target: Sodium-dependent dopamine transporter (Rattus norvegicus) (UniProt P23977); assay: Value is difference between the cocaine binding and DA uptake
# [5] = target: Sodium-dependent dopamine transporter (Rattus norvegicus) (UniProt P23977); assay: Potency ratio for Cocaine receptor (IC50 cocaine /IC50 compound)
# [6] = target: Sodium-dependent dopamine transporter (Rattus norvegicus) (UniProt P23977); assay: Dopamine (DA) uptake; format: functional
# Sequence of Sodium-dependent dopamine transporter (Rattus norvegicus) (P23977 whole entry): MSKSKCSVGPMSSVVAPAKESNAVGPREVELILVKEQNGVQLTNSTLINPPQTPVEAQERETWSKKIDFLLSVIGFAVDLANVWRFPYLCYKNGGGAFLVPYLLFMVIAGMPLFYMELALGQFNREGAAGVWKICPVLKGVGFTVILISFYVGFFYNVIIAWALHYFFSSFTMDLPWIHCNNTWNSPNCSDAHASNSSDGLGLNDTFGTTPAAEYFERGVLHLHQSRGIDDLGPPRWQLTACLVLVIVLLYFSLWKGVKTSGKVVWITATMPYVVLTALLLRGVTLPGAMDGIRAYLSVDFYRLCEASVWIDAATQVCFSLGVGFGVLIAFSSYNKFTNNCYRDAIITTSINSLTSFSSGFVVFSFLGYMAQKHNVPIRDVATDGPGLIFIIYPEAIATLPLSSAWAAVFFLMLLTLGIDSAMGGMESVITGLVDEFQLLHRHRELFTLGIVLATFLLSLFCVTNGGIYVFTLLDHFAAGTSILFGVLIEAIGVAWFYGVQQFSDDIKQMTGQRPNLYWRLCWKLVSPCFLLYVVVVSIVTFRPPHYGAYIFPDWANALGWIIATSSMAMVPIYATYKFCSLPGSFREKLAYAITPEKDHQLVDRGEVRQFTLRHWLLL
# T1 sequence (P23977 whole entry): as above
SMILES,IC50 [1] [nM],Log potency ratio [2],IC50 [3] [nM],Log potency ratio [4],Log potency ratio [5],Log potency ratio [6]
COC(=O)C1C(Cc2ccc3ccccc3c2)CC2CCC1N2C (centres undefined),1350,–,–,–,–,–
COC(=O)[C@@H]1C2CC[C@H](C[C@H]1OC(=O)c1ccc3ccccc3c1)N2C,813,0.07,327,0.08,-0.51,-0.59
COC(=O)C1C(c2ccc([N+](=O)[O-])cc2)CC2CCC1N2C (centres undefined),–,1.48,–,-0.134,0.006,–
COC(=O)C1C(CCCc2ccccc2)CC2CCC1N2C (centres undefined),2680,-1.84,344,0.58,-0.53,-1.11
COC(=O)[C@H]1C2CC[C@H](C[C@H]1c1ccc3ccccc3c1)N2C,3.53,1.66,3.32,-0.29,1.48,1.77
COC(=O)[C@H]1[C@@H](c2ccc(F)cc2)C[C@H]2CC[C@H]1N2C,–,-0.49,–,-0.35,0.59,0.94
COC(=O)[C@@H]1C2CC[C@H](C[C@@H]1c1ccccc1)N2C,–,–,–,-0.13,0.53,0.66
COC(=O)[C@@H]1C2CC[C@H](C[C@H]1/C=C/c1ccccc1)N2C,5.88,0.48,2.1,0.13,1.68,1.55
COC(=O)C1C(OC(=O)c2cccc3ccccc23)CC2CCC1N2C (centres undefined),1190,0.01,742,-0.11,-0.87,-0.76
COC(=O)[C@@H]1C2CC[C@H](C[C@H]1c1ccc(-c3ccccc3)cc1)N2C,29.4,0.9,10.3,0.14,0.99,0.85
COC(=O)[C@@H]1C2CC[C@H](C[C@H]1CCc1ccccc1)N2C,70.5,-0.77,9.94,0.54,1.01,0.47
COC(=O)C1C(Cc2ccccc2)CC2CCC1N2C (centres undefined),1020,–,–,–,–,–
C=C(c1ccccc1)C1CC2CCC(C1C(=O)OC)N2C (centres undefined),138,-0.83,71.6,-0.03,0.15,0.18
COC(=O)C1C(c2ccc(N)cc2)CC2CCC1N2C (centres undefined),–,2.58,–,-0.32,-0.14,0.18
